In US20180179167A1, “Nrf2 REGULATORS” (GlaxoSmithKline Intellectual Property Development Limited, priority 2015, published 2018):

Tested on: NQO1 specific enzyme activity in BEAS-2B cells
Assay: BEAS-2B NQO1 MTT Assay
Assay type: cell-based
Conditions: Homo sapiens, EC50 of NQO1 specific activity induction, 48 hours with compound
Text: NAD(P)H:quinone oxidoreductase 1 (NQO1), also called DT diaphorase, is a homodimeric FAD-containing enzyme that catalyzes obligatory NAD(P)H-dependent two-electron reductions of quinones and protects cells against the toxic and neoplastic effects of free radicals and reactive oxygen species arising from one-electron reductions. The transcription of NQO1 is finely regulated by Nrf2, and thus NQO1 activity is a good marker for Nrf2 activation. On day one, frozen BEAS-2B cells (ATCC) are thawed in a water bath, counted, and re-suspended at a concentration of 250,000 cells/mL. Fifty microliters of cells are plated in 384 well black clear-bottomed plates. Plates are incubated at 37° C., 5% CO2 overnight. On day two, plates are centrifuged and 50 nL of compound or controls are added to the cells. Plates are then incubated at 37° C., 5% CO2 for 48 hours. On day four, medium is aspirated from the plate and crude cell lysates are made by adding 13 uL of 1× Cell Signaling Technologies lysis buffer with 1 Complete, Mini, EDTA-free Protease Inhibitor Tablet (Roche) for each 10 mL of lysis buffer . After lysis plates are incubated for 20 minutes at room temperature. Two microliters of lysate are removed for use in Cell Titer Glo assay (Promega) and MTT cocktail is prepared (Prochaska et. al. 1998) for measurement of NQO1 activity. Fifty microliters of MTT cocktail is added to each well, plate is centrifuged, and analyzed on an Envision plate reader (Perkin Elmer) using Absorbance 570 nm label for 30 minutes. Product formation is measured kinetically and the EC50 of NQO1 specific activity induction is calculated by plotting the change in absorbance (Delta OD/min) versus the log of compound concentration followed by 3-parameter fitting.
EC50s <1 nM (+++++), EC50s 10 nM-1 nM (++++), EC50s 10-100 nM (+++), EC50s 100 nM-1 uM (++), EC50s 1-10 uM (+), EC50s >10 uM (−), or were not determined (ND).

| SMILES | EC50 [µM] |
| --- | --- |
| CC(=O)N(Cc1cc(C(CC(=O)O)c2ccc3c(nnn3C)c2C)ccc1C)CC1CCCCCC1 (centres unmarked) [Example 27, 3-(3-((N-(Cycloheptylmethyl)acetamido)methyl)-4-methylphenyl)-3-(1,4-dimethyl-1H-benzo[d][1,2,3]triazol-5-yl)propanoic acid] | 0.1 to 1 |
| CCC(C)OC(=O)N(C)Cc1cc(C(CC(=O)O)c2ccc3c(c2)nnn3C)ccc1Cl (centres unmarked) [Example 3, 3-[3-({[(Butan-2-yloxy)carbonyl](methyl)amino}methyl)-4-chlorophenyl]-3-(1-methyl-1H-1,2,3-benzotriazol-5-yl)propanoic acid] | 1 to 10 |
| COc1cc(C(CC(=O)O)c2ccc(C)c(CN(C)C(=O)OC(C)(C)C)c2)cc2nnn(C)c12 (centres unmarked) [Example 4, 3-[3-({[(tert-Butoxy)carbonyl](methyl)amino}methyl)-4-methylphenyl]-3-(7-methoxy-1-methyl-1H-1,2,3-benzotriazol-5-yl)propanoic acid] | 1 to 10 |
| COCC(C)(C)OC(=O)N(C)Cc1cc(C(CC(=O)O)c2ccc3c(nnn3C)c2C)ccc1C (centres unmarked) [Example 10] | 1 to 10 |
| CCC1CCC(CN(Cc2cc(C(CC(=O)O)c3ccc4c(nnn4C)c3C)ccc2C)C(N)=O)CC1 (centres unmarked) [Example 19, 3-(1,4-Dimethyl-1H-benzo[d][1,2,3]triazol-5-yl)-3-(3-((1-((4-ethylcyclohexyl)methyl)ureido)methyl)-4-methylphenyl)propanoic acid] | 1 to 10 |
| COc1ccc(CN(Cc2cc(C(CC(=O)O)c3ccc4c(nnn4C)c3C)ccc2C)C(C)=O)cc1 (centres unmarked) [Example 15, 3-(1,4-Dimethyl-1H-benzo[d][1,2,3]triazol-5-yl)-3-(3-((N-(4-methoxybenzyl)acetamido)methyl)-4-methylphenyl)propanoic acid] | 1 to 10 |
| COc1cc(C(CC(=O)O)c2ccc(Cl)c(CN(C)C(=O)OC3CCCC3)c2)cc2nnn(C)c12 (centres unmarked) [Example 9, 3-(4-Chloro-3-((((cyclopentyloxy)carbonyl)(methyl)amino)methyl)phenyl)-3-(7-methoxy-1-methyl-1H-benzo[d][1,2,3]triazol-5-yl)propanoic acid] | 1 to 10 |
| CC(=O)N(Cc1cc(C(CC(=O)O)c2ccc3c(nnn3C)c2C)ccc1C)CC1CCCCC1 (centres unmarked) [Example 11, 3-(3-((N-(Cyclohexylmethyl)acetamido)methyl)-4-methylphenyl)-3-(1,4-dimethyl-1H-benzo[d][1,2,3]triazol-5-yl)propanoic acid] | 1 to 10 |
| COc1cc(C(CC(=O)O)c2ccc(Cl)c(CN(C)C(=O)OC(C)(C)C)c2)cc2nnn(C)c12 (centres unmarked) [Example 6, 3-(3-(((tert-Butoxycarbonyl)(methyl)amino)methyl)-4-chlorophenyl)-3-(7-methoxy-1-methyl-1H-benzo[d][1,2,3]triazol-5-yl)propanoic acid] | 0.1 to 1 |
| Cc1ccc(C(CC(=O)O)c2ccc3c(nnn3C)c2C)cc1CN(C)C(=O)Oc1ccc([N+](=O)[O-])cc1 (centres unmarked) [Example 8, 3-(1,4-Dimethyl-1H-benzo[d][1,2,3]triazol-5-yl)-3-(4-methyl-3-((methyl((4-nitrophenoxy)carbonyl)amino)methyl)phenyl)propanoic acid] | 1 to 10 |
| CCC1CCC(CN(Cc2cc(C(CC(=O)O)c3ccc4c(nnn4C)c3C)ccc2C)C(C)=O)CC1 (centres unmarked) [Example 17, 3-(1,4-Dimethyl-1H-benzo[d][1,2,3]triazol-5-yl)-3-(3-((N-((4-ethylcyclohexyl)methyl)acetamido)methyl)-4-methylphenyl)propanoic acid] | 0.01 to 0.1 |
| COc1cc(C(CC(=O)O)c2ccc(C)c(CN(CC3CCCCC3)C(C)=O)c2)cc2nnn(C)c12 (centres unmarked) [Example 20, 3-(3-((N-(Cyclohexylmethyl)acetamido)methyl)-4-methylphenyl)-3-(7-methoxy-1-methyl-1H-benzo[d][1,2,3]triazol-5-yl)propanoic acid] | 0.1 to 1 |
| Cc1ccc([C@@H](c2ccc3c(nnn3C)c2C)C(C)(C)C(=O)O)cc1CN(CC1CCCCCC1)C(N)=O [Example 23, (S)-3-(3-((1-(Cycloheptylmethyl)ureido)methyl)-4-methylphenyl)-3-(1,4-dimethyl-1H-benzo[d][1,2,3]triazol-5-yl)-2,2-dimethylpropanoic acid] | 0.001 to 0.01 |
| CC(=O)N(Cc1ccccc1)Cc1cc(C(CC(=O)O)c2ccc3c(nnn3C)c2C)ccc1C (centres unmarked) [Example 12, 3-(3-((N-Benzylacetamido)methyl)-4-methylphenyl)-3-(1,4-dimethyl-1H-benzo[d][1,2,3]triazol-5-yl)propanoic acid] | 1 to 10 |
| Cc1ccc([C@@H](c2ccc3c(nnn3C)c2C)C(C)(C)C(=O)O)cc1CN(CC1(O)CCCCCC1)C(N)=O [Example 25, (S)-3-(1,4-Dimethyl-1H-benzo[d][1,2,3]triazol-5-yl)-3-(3-((1-((1-hydroxycycloheptyl)methyl)ureido)methyl)-4-methylphenyl)-2,2-dimethylpropanoic acid] | 0.1 to 1 |
| Cc1ccc(C(CC(=O)O)c2ccc3c(c2)nnn3C)cc1OCC(=O)N(C)C (centres unmarked) [Example 7, 3-(3-(2-(Dimethylamino)-2-oxoethoxy)-4-methylphenyl)-3-(1-methyl-1H-benzo[d][1,2,3]triazol-5-yl)propanoic acid] | 1 to 10 |
| CCC1CCC(CN(Cc2cc(C(c3ccc4c(nnn4C)c3C)C(C)(C)C(=O)O)ccc2C)C(N)=O)CC1 (centres unmarked) [Example 22, 3-(1,4-Dimethyl-1H-benzo[d][1,2,3]triazol-5-yl)-3-(3-((1-((4-ethylcyclohexyl)methyl)ureido)methyl)-4-methylphenyl)-2,2-dimethylpropanoic acid] | 0.001 to 0.01 |
| CC(=O)N(Cc1cc(C(CC(=O)O)c2ccc3c(nnn3C)c2C)ccc1C)Cc1cccc(C)c1C (centres unmarked) [Example 14, 3-(1,4-Dimethyl-1H-benzo[d][1,2,3]triazol-5-yl)-3-(3-((N-(2,3-dimethylbenzyl)acetamido)methyl)-4-methylphenyl)propanoic acid] | 1 to 10 |
| CC(=O)N(Cc1cc(C(c2ccc3c(nnn3C)c2C)C(C)(C)C(=O)O)ccc1C)CC1(O)CCCCC1 (centres unmarked) [Example 26, 3-(1,4-Dimethyl-1H-benzo[d][1,2,3]triazol-5-yl)-3-(3-((N-((1-hydroxycyclohexyl)methyl)acetamido)methyl)-4-methylphenyl)-2,2-dimethylpropanoic acid] | 0.1 to 1 |
| Cc1c(C(CC(=O)O)c2ccc(Cl)c(CN(C)C(=O)OC(C)(C)C)c2)ccc2c1nnn2C (centres unmarked) [Example 1, 3-[3-({[(tert-Butoxy)carbonyl](methyl)amino}methyl)-4-chlorophenyl]-3-(1,4-dimethyl-1H-1,2,3-benzotriazol-5-yl)propanoic acid] | 0.1 to 1 |
| CCC1CCC(O)(CN(Cc2cc([C@@H](c3ccc4c(nnn4C)c3C)C(C)(C)C(=O)O)ccc2C)C(N)=O)CC1 (stereo partly drawn) [Example 24, (S)-3-(1,4-Dimethyl-1H-benzo[d][1,2,3]triazol-5-yl)-3-(3-((1-((4-ethyl-1-hydroxycyclohexyl)methyl)ureido)methyl)-4-methylphenyl)-2,2-dimethylpropanoic acid] | 0.01 to 0.1 |
| CCc1ccc(CN(Cc2cc(C(CC(=O)O)c3ccc4c(nnn4C)c3C)ccc2C)C(C)=O)cc1 (centres unmarked) [Example 16, 3-(1,4-Dimethyl-1H-benzo[d][1,2,3]triazol-5-yl)-3-(3-((N-(4-ethylbenzyl)acetamido)methyl)-4-methylphenyl)propanoic acid] | 1 to 10 |
| CN(Cc1cc(C(CC(=O)O)c2ccc3c(c2)nnn3C)ccc1Cl)C(=O)OC1CCCC1 (centres unmarked) [Example 2, 3-[4-Chloro-3-({[(cyclopentyloxy)carbonyl](methyl)amino}methyl)phenyl]-3-(1-methyl-1H-1,2,3-benzotriazol-5-yl)propanoic acid] | 1 to 10 |
| CC(=O)N(Cc1cccc(C)c1)Cc1cc(C(CC(=O)O)c2ccc3c(nnn3C)c2C)ccc1C (centres unmarked) [Example 13, 3-(1,4-Dimethyl-1H-benzo[d][1,2,3]triazol-5-yl)-3-(4-methyl-3-((N-(3-methylbenzyl)acetamido)methyl)phenyl)propanoic acid] | 1 to 10 |
| Cc1ccc(C(CC(=O)O)c2ccc3c(nnn3C)c2C)cc1CN(CC1CCCCC1)C(N)=O (centres unmarked) [Example 18, 3-(3-((1-(Cyclohexylmethyl)ureido)methyl)-4-methylphenyl)-3-(1,4-dimethyl-1H-benzo[d][1,2,3]triazol-5-yl)propanoic acid] | 1 to 10 |
| CN(Cc1cc(C(CC(=O)O)c2ccc3c(c2)nnn3C)ccc1Cl)C(=O)OC1CCCCC1 (centres unmarked) [Example 5, 3-(4-Chloro-3-((((cyclohexyloxy)carbonyl)(methyl)amino)methyl)phenyl)-3-(1-methyl-1H-benzo[d][1,2,3]triazol-5-yl)propanoic acid] | 1 to 10 |
